From US20140303092A1 (CHIMERIX, INC., priority 2011, published 2014)

Experiment: Study HDP-CDV-201: safety and tolerability (adverse events, laboratory abnormalities, discontinuations)
Format: in vivo, human (adult allogeneic HSCT recipients)
Method: Clinical Studies of HDP-CDV were performed and described in detail in the following Examples. For example, HDP-CDV-201 is a placebo-controlled, dose-escalating trial in HSCT CMV (R+) recipients, evaluating the ability of HDP-CDV to prevent or control CMV infection was carried out. Five cohorts were established in which participants or subjects received either placebo or the HDP-CDV orally, in doses ranging from 40 mg weekly (QW) to 200 mg twice weekly (BIW). Subjects who were post-HSCT were enrolled at the time of engraftment and randomized to HDP-CDV or placebo (3 to 1 ratio) and received blinded therapy until approximately 100 day post-transplantation. HDP-CDV doses were 40 mg QW, 100 mg QW, 200 mg QW, 200 mg BIW and 100 mg BIW. Escalation to the next dose was decided by the data monitoring committee after review of the safety data from the previous Cohort. Subjects who developed CMV disease or CMV infection requiring pre-emptive therapy with local standard of care were discontinued from blinded therapy and followed for 4 weeks. Subjects who completed treatment with blinded therapy were followed for 8 weeks post-therapy.
Data from Study HDP-CDV-201 also provided characterization of the safety and tolerability profile of HDP-CDV when administered for the prevention or control of CMV infection in high risk (R^+) post-HSCT adult subjects.
The Safety population (SAFETY) included all randomized subjects who took at least one dose of study treatment. This population was used to summarize safety outcomes based on the treatment actually received, in cases where a subject was treated contrary to the randomization schedule.
The safety and tolerability profile of HDP-CDV, including subject demographics and Baseline characteristics; the AE profile; and laboratory abnormalities of interest were analyzed in the cohorts followed in this investigation.
Subjects completing the treatment period received a full course of study medication; those completing the entire study attended visits through 8 weeks of follow up. Subjects who discontinued treatment may have done so for protocol specified reasons (e.g. development of clinically significant CMV infection requiring preemptive treatment with excluded anti-CMV medications) or for other reasons (e.g., withdrawal, adverse events, loss to follow-up). The disposition of subjects in Study HDP-CDV-201 during the double-blind, placebo-controlled treatment period (through Week 11) is listed by dosing Cohort in TABLE 23.
Adverse events were examined by severity to ensure that all safety signals were identified in this study population. Because of the frequency of events in HSCT recipients, particular attention was given to evaluation of Grade 3 […], 4 (severe), and 5 (fatal) adverse events.
Only those preferred terms for which at least one Grade 3 or higher event was experienced in any treatment group are listed. Cytomegalovirus-related AEs are excluded from this analysis.
HDP-CDV is a lipid conjugate of CDV. Because CDV is known to have adverse effects on renal function and bone marrow, decreased GFR and persistent neutropenia were identified as AEs of special interest. Key renal and hematological (TABLE 30) laboratory parameters were measured and listed below by Study HDP-CDV-201 treatment groups. TABLE 30 includes abnormal levels of serum creatinine, neutrophils, platelets, WBCs, and hemoglobin and includes data at Screening and during the treatment period.
A common metric for unit based dosing of medications is by weight (mg/kg). When the distribution of weights was examined for all subjects participating in the study, the median was 78 kg and the lower 25th percentile weight was approximately 65 kg, which translates to a cut-off of ˜3 mg/kg for a 200 mg total weekly dose. Based upon this approach, a cut-off of 3 mg/kg was used to assess the frequency of diarrhea and associated GI AEs reported for the subjects in Cohorts 3 or 4a (TABLE 40).

[1] = Cohort 3, 200 mg QW, through Week 11

CCCCCCCCCCCCCCCCOCCCOP(=O)(O)COC(CO)Cn1ccc(N)nc1=O (stereo not drawn) [HDP-CDV]
TEAE Vomiting Overall Frequency, subjects (Cohort 3, 200 mg QW): 6 (15.4%)
Total Bilirubin (Screening) >1-[…] ULN, subjects (Cohort 3, 200 mg QW): 0
Total Bilirubin (Screening) >1.5-3 × ULN, subjects (Cohort 3, 200 mg QW): 0
Total Bilirubin (Screening) >3-10 × ULN, subjects (Cohort 3, 200 mg QW): 0
Total Bilirubin (Screening) >10 × ULN, subjects (Cohort 3, 200 mg QW): 0
Total Bilirubin (any time during therapy) >1-[…] ULN, subjects (Cohort 3, 200 mg QW): 1 (2.6%)
Total Bilirubin (any time during therapy) >1.5-3 × ULN, subjects (Cohort 3, 200 mg QW): 3 (7.9%)
Total Bilirubin (any time during therapy) >3-10 × ULN, subjects (Cohort 3, 200 mg QW): 0
Total Bilirubin (any time during therapy) >10 × ULN, subjects (Cohort 3, 200 mg QW): 0
Abdominal pain leading to study drug withdrawal (Cohort 3, 200 mg QW, N = 39): 0%
All AEs leading to withdrawal (Cohort 3, 200 mg QW, N = 39): 15 (38.5%)
Diarrhoea leading to study drug withdrawal (Cohort 3, 200 mg QW, N = 39): 1 (2.6%)
Dyspepsia leading to study drug withdrawal (Cohort 3, 200 mg QW, N = 39): 2 (5.1%)
Nausea leading to study drug withdrawal (Cohort 3, 200 mg QW, N = 39): 0%
TEAE ALT increased (Cohort 3, 200 mg QW, N = 39): 2 (5.1%) n (%)
TEAE AST increased (Cohort 3, 200 mg QW, N = 39): 1 (2.6%) n (%)
TEAE Abdominal pain (Cohort 3, 200 mg QW, N = 39): 5 (12.8%) n (%)
TEAE Abdominal pain, Upper (Cohort 3, 200 mg QW, N = 39): 1 (2.6%) n (%)
TEAE Acute GVHD (Cohort 3, 200 mg QW, N = 39): 13 (33.3%) n (%)
TEAE Acute Myeloid Leukemia recurrent (Cohort 3, 200 mg QW, N = 39): 0 n (%)
TEAE Acute Renal Failure (Cohort 3, 200 mg QW, N = 39): 0 n (%)
TEAE Anxiety (Cohort 3, 200 mg QW, N = 39): 3 (7.7%) n (%)
TEAE Arthralgias (Cohort 3, 200 mg QW, N = 39): 1 (2.6%) n (%)
TEAE Back Pain (Cohort 3, 200 mg QW, N = 39): 2 (5.1%) n (%)
TEAE Blood lactate dehydrogenase increased (Cohort 3, 200 mg QW, N = 39): 0 n (%)
TEAE Creatinine increased (Cohort 3, 200 mg QW, N = 39): 3 (7.7%) n (%)
TEAE Cytomegalovirus viremia (Cohort 3, 200 mg QW, N = 39): 7 (17.9%) n (%)
TEAE Decreased appetite (Cohort 3, 200 mg QW, N = 39): 3 (7.7%) n (%)
TEAE Diarrhoea (Cohort 3, 200 mg QW, N = 39): 13 (33.3%) n (%)
TEAE Dysgeusia (Cohort 3, 200 mg QW, N = 39): 2 (5.1%) n (%)
TEAE Fatigue (Cohort 3, 200 mg QW, N = 39): 5 (12.8%) n (%)
TEAE GI Reflux Disease (Cohort 3, 200 mg QW, N = 39): 2 (5.1%) n (%)
TEAE Gamma-glutamyltransferase increased (Cohort 3, 200 mg QW, N = 39): 0 n (%)
TEAE Generalized oedema (Cohort 3, 200 mg QW, N = 39): 0 n (%)
TEAE Hyperbilirubinaemia (Cohort 3, 200 mg QW, N = 39): 3 (7.7%) n (%)
TEAE Hyperglycaemia (Cohort 3, 200 mg QW, N = 39): 1 (2.6%) n (%)
TEAE Hyperkalemia (Cohort 3, 200 mg QW, N = 39): 1 (2.6%) n (%)
TEAE Hypocalcaemia (Cohort 3, 200 mg QW, N = 39): 0 n (%)
TEAE Hypokalaemia (Cohort 3, 200 mg QW, N = 39): 5 (12.8%) n (%)
TEAE Hyponatraemia (Cohort 3, 200 mg QW, N = 39): 7 (17.9%) n (%)
TEAE Increased leukocytosis (Cohort 3, 200 mg QW, N = 39): 2 (5.1%) n (%)
TEAE Insomnia (Cohort 3, 200 mg QW, N = 39): 5 (12.8%) n (%)
TEAE Liver function test abnormal (Cohort 3, 200 mg QW, N = 39): 2 (5.1%) n (%)
TEAE Malnutrition (Cohort 3, 200 mg QW, N = 39): 1 (2.6%) n (%)
TEAE Nausea (Cohort 3, 200 mg QW, N = 39): 11 (28.2%) n (%)
TEAE Neutropenia (Cohort 3, 200 mg QW, N = 39): 4 (10.3%) n (%)
TEAE Oedema peripheral (Cohort 3, 200 mg QW, N = 39): 3 (7.7%) n (%)
TEAE Oral Candidiasis (Cohort 3, 200 mg QW, N = 39): 2 (5.1%) n (%)
TEAE Pneumonia (Cohort 3, 200 mg QW, N = 39): 0 n (%)
TEAE Pyrexia (Cohort 3, 200 mg QW, N = 39): 7 (17.9%) n (%)
TEAE Recurrent flatulence (Cohort 3, 200 mg QW, N = 39): 1 (2.6%) n (%)
TEAE Renal Failure (Cohort 3, 200 mg QW, N = 39): 0 n (%)
TEAE Staphylococcal Bacteremia (Cohort 3, 200 mg QW, N = 39): 1 (2.6%) n (%)
TEAE Thrombocytopenia (Cohort 3, 200 mg QW, N = 39): 0 n (%)
TEAE Tremor (Cohort 3, 200 mg QW, N = 39): 2 (5.1%) n (%)
TEAE Vomiting (Cohort 3, 200 mg QW, N = 39): 6 (15.4%) n (%)
Vomiting leading to study drug withdrawal (Cohort 3, 200 mg QW, N = 39): 0%
All AEs, Grade 5 (deaths) (Cohort 3, 200 mg QW, N = 39, entire study duration): 3 (7.7%)
Subjects completed treatment [1]: 18 (46.2%) n (%)
Subjects who permanently discontinued treatment [1]: 21 (53.8%) n (%)
TEAE Abdominal pain Grade 2, subjects (Cohort 3, 200 QW >3 mg/kg): 0
TEAE Abdominal pain Grade 3, subjects (Cohort 3, 200 QW >3 mg/kg): 1 (7.1%)
TEAE Abdominal pain Grade 4, subjects (Cohort 3, 200 QW >3 mg/kg): 0
TEAE Abdominal pain Grade 5, subjects (Cohort 3, 200 QW >3 mg/kg): 0
TEAE Abdominal pain Overall Frequency, subjects (Cohort 3, 200 QW >3 mg/kg): 2 (14.3%)
TEAE Diarrhea Grade 2, subjects (Cohort 3, 200 QW >3 mg/kg): 4 (28.6%)
TEAE Diarrhea Grade 3, subjects (Cohort 3, 200 QW >3 mg/kg): 1 (7.1%)
TEAE Diarrhea Grade 4, subjects (Cohort 3, 200 QW >3 mg/kg): 0
TEAE Diarrhea Grade 5, subjects (Cohort 3, 200 QW >3 mg/kg): 0
TEAE Diarrhea Overall Frequency, subjects (Cohort 3, 200 QW >3 mg/kg): 8 (57.1%)
TEAE Hypokalaemia Grade 2, subjects (Cohort 3, 200 QW >3 mg/kg): 1 (7.1%)
TEAE Hypokalaemia Grade 3, subjects (Cohort 3, 200 QW >3 mg/kg): 0
TEAE Hypokalaemia Grade 4, subjects (Cohort 3, 200 QW >3 mg/kg): 0
TEAE Hypokalaemia Grade 5, subjects (Cohort 3, 200 QW >3 mg/kg): 0
TEAE Hypokalaemia, subjects (Cohort 3, 200 QW >3 mg/kg): 4 (28.6%)
TEAE Nausea Grade 2, subjects (Cohort 3, 200 QW >3 mg/kg): 1 (7.1%)
TEAE Nausea Grade 3, subjects (Cohort 3, 200 QW >3 mg/kg): 0
TEAE Nausea Grade 4, subjects (Cohort 3, 200 QW >3 mg/kg): 0
TEAE Nausea Grade 5, subjects (Cohort 3, 200 QW >3 mg/kg): 0
TEAE Nausea Overall Frequency, subjects (Cohort 3, 200 QW >3 mg/kg): 3 (21.4%)
TEAE Vomiting Grade 2, subjects (Cohort 3, 200 QW >3 mg/kg): 0
TEAE Vomiting Grade 3, subjects (Cohort 3, 200 QW >3 mg/kg): 0
TEAE Vomiting Grade 4, subjects (Cohort 3, 200 QW >3 mg/kg): 0
TEAE Vomiting Grade 5, subjects (Cohort 3, 200 QW >3 mg/kg): 0
TEAE Vomiting Overall Frequency, subjects (Cohort 3, 200 QW >3 mg/kg): 2 (14.3%)
TEAE Abdominal pain Grade 2, subjects (Cohort 3, 200 QW ≦3 mg/kg): 1 (4.0%)
TEAE Abdominal pain Grade 3, subjects (Cohort 3, 200 QW ≦3 mg/kg): 0
TEAE Abdominal pain Grade 4, subjects (Cohort 3, 200 QW ≦3 mg/kg): 0
TEAE Abdominal pain Grade 5, subjects (Cohort 3, 200 QW ≦3 mg/kg): 0
TEAE Abdominal pain Overall Frequency, subjects (Cohort 3, 200 QW ≦3 mg/kg): 3 (12%)
TEAE Diarrhea Grade 2, subjects (Cohort 3, 200 QW ≦3 mg/kg): 1 (4.0%)
TEAE Diarrhea Grade 3, subjects (Cohort 3, 200 QW ≦3 mg/kg): 1 (4.0%)
TEAE Diarrhea Grade 4, subjects (Cohort 3, 200 QW ≦3 mg/kg): 0
TEAE Diarrhea Grade 5, subjects (Cohort 3, 200 QW ≦3 mg/kg): 0
TEAE Diarrhea Overall Frequency, subjects (Cohort 3, 200 QW ≦3 mg/kg): 5 (20%)
TEAE Hypokalaemia Grade 2, subjects (Cohort 3, 200 QW ≦3 mg/kg): 1 (4.0%)
TEAE Hypokalaemia Grade 3, subjects (Cohort 3, 200 QW ≦3 mg/kg): 0
TEAE Hypokalaemia Grade 4, subjects (Cohort 3, 200 QW ≦3 mg/kg): 0
TEAE Hypokalaemia Grade 5, subjects (Cohort 3, 200 QW ≦3 mg/kg): 0
TEAE Hypokalaemia, subjects (Cohort 3, 200 QW ≦3 mg/kg): 1 (4.0%)
TEAE Nausea Grade 2, subjects (Cohort 3, 200 QW ≦3 mg/kg): 3 (12%)
TEAE Nausea Grade 3, subjects (Cohort 3, 200 QW ≦3 mg/kg): 1 (4.0%)
TEAE Nausea Grade 4, subjects (Cohort 3, 200 QW ≦3 mg/kg): 0
TEAE Nausea Grade 5, subjects (Cohort 3, 200 QW ≦3 mg/kg): 0
TEAE Nausea Overall Frequency, subjects (Cohort 3, 200 QW ≦3 mg/kg): 8 (32%)
TEAE Vomiting Grade 2, subjects (Cohort 3, 200 QW ≦3 mg/kg): 1 (4.0%)
TEAE Vomiting Grade 3, subjects (Cohort 3, 200 QW ≦3 mg/kg): 1 (4.0%)
TEAE Vomiting Grade 4, subjects (Cohort 3, 200 QW ≦3 mg/kg): 0
TEAE Vomiting Grade 5, subjects (Cohort 3, 200 QW ≦3 mg/kg): 0
TEAE Vomiting Overall Frequency, subjects (Cohort 3, 200 QW ≦3 mg/kg): 4 (16%)
Abnormal ALT >3-5x ULN, Any Time Between Week 2 and Week 10, subjects (Cohort 3, >3.0 mg/kg/wk): 1 (7.1%)
